The values below come from patent US7709649B2, “Multi-substituted pyridyl sulfoximines and their use as insecticides” (Dow AgroSciences LLC, priority 2006, dated 2010).

For series [1], the system named is cotton aphid (Aphis gossypii). In words: Insecticidal test for cotton aphid in foliar spray assay. The class given is in vivo. The note with it: for pest or weed control at 50 ppm / pest or weed control at 200 ppm: Aphis gossypii, 72 h, foliar spray on squash, 3 days, Corrected % Control (Abbott), Table 1; for pest or weed control at 50 ppm: read-out: CA 50: % control at 50 ppm against cotton aphid in foliar spray tests; for pest or weed control at 200 ppm: read-out: CA 200: % control at 200 ppm against cotton aphid in foliar spray tests; for CA 0.78: % Control at ppm against cotton aphid (foliar spray): 0.78 ppm; for CA 0.78: % Control at ppm against cotton aphid (foliar spray) / CA 3.13: % Control at ppm against cotton aphid (foliar spray) / CA 12.5: % Control at ppm against cotton aphid (foliar spray) / CA 50: % Control at ppm against cotton aphid (foliar spray): rundown assay, Table 2; for CA 3.13: % Control at ppm against cotton aphid (foliar spray): 3.13 ppm; for CA 12.5: % Control at ppm against cotton aphid (foliar spray): 12.5 ppm; for pest or weed control at 50 ppm / CA 50: % Control at ppm against cotton aphid (foliar spray): 50 ppm. As to the method:
Insecticidal Test for Cotton Aphid (Aphis gossypii) in Foliar Spray Assay Squash with fully expanded cotyledon leaves were trimmed to one cotyledon per plant and infested with cotton aphid (wingless adult and nymph) 1 day prior to chemical application. Each plant was examined before chemical application to ensure proper infestation (ca. 30-70 aphids per plant). Compounds (2 mg) were dissolved in 2 ml of acetone:methanol (1:1) solvent, forming stock solutions of 1000 ppm. The stock solutions were diluted 5× with 0.025% Tween 20 in H2O to obtain the highest test solution at 200 ppm. Lower test concentrations (50, 12.5, 3.13 and 0.78 ppm) were prepared by making sequential 4× dilutions from the 200 ppm solution with a diluent consisting 80 parts of 0.025% Tween 20 in H2O and 20 parts of acetone:methanol (1:1). A hand-held Devilbiss sprayer was used to apply the spray solutions until runoff to both sides of the squash cotyledon leaves. Four plants (4 replications) were used for each concentration of each compound. Reference plants (solvent check) were sprayed with the diluent only. Treated plants were held in a holding room for 3 days at approximately 23° C. and 40% RH before the number of live aphids on each plant was recorded. Insecticidal activity was measured by Corrected % Control using Abbott's correction formula: Corrected % Control=100*(X−Y)/X where • X=No. of live aphids on solvent check plants • Y=No. of live aphids on treated plants Insecticidal Test for Green Peach Aphid (Myzus persicae) in Foliar Spray Assay

Series [2] has as its system green peach aphid (Myzus persicae). In words: Insecticidal test for green peach aphid in foliar spray assay. The class given is in vivo. Also on record: key to GPA 200: % control at 200 ppm against green peach aphid in foliar spray tests / GPA 50: % control at 50 ppm against green peach aphid in foliar spray tests: A: 90-100; B: 80-89; C: 70-79; D: 60-69; E: 50-59; F: Less than 50; G: Inactive; H: Not tested. Particulars: foliar spray on cabbage seedlings, 3 days, Corrected % Control (Abbott); for pest or weed control at 50 ppm: Myzus persicae, 72 h, read-out: GPA 50: % control at 50 ppm against green peach aphid in foliar spray tests. As for the experimental part: where • X=No. of live aphids on solvent check plants • Y=No. of live aphids on treated plants Insecticidal Test for Green Peach Aphid (Myzus persicae) in Foliar Spray Assay Cabbage seedlings grown in 3-inch pots, with 2-3 small (3-5 cm) true leaves, were used as test substrate. The seedlings were infested with 20-50 green peach aphids (wingless adult and nymph) 2-3 days prior to chemical application. Four seedlings were used for each treatment. Compounds (2 mg) were dissolved in 2 ml of acetone:methanol (1:1) solvent, forming stock solutions of 1000 ppm. The stock solutions were diluted 5× with 0.025% Tween 20 in H2O to obtain the highest test solution at 200 ppm. A lower test concentration of 50 ppm was prepared by making a 4× dilution from the 200 ppm solution with a diluent consisting 80 parts of 0.025% Tween 20 in H2O and 20 parts of acetone: methanol (1:1). A hand-held Devilbiss sprayer was used for spraying a solution to both sides of cabbage leaves until runoff. Reference plants (solvent check) were sprayed with the diluent only. Treated plants were held in a holding room for three days at approximately 23° C. and 40% RH prior to grading. Evaluation was conducted by counting the number of live aphids per plant under a microscope. Insecticidal activity was measured by using Abbott's correction formula: Corrected % Control=100*(X−Y)/X where • X=No. of live aphids on solvent check plants • Y=No. of live aphids on treated plants The Corrected % Control values from the above assays are given in Table 1.

Structures are written as SMILES.

With `CSc1ncc(C(C)S(C)(=O)=NC#N)cc1F` (centres unmarked) [Compound 4, [1-(5-fluoro-6-methylthioyridin-3-yl)ethyl]-(methyl)-oxido-λ^4-sulfanylidenecyanamide], in series [1], the pest or weed control at 50 ppm was in the range of 80 to 89% and the pest or weed control at 200 ppm fell in the range of 90 to 100%. Further, in series [2], the “GPA 50: % control at 50 ppm against green peach aphid in foliar spray tests” value (“GPA 50: % control at 50 ppm” below) is reported as “G” and the “GPA 200: % control at 200 ppm against green peach aphid in foliar spray tests” value (shortened to “GPA 200: % control at 200 ppm”) is reported as “G”.
Consider `CC(c1cnc(Cl)c(F)c1)S(C)(=O)=NC#N` (centres unmarked) [Compound 3, [1-(5-fluoro-6-chloropyridin-3-yl)ethyl](methyl)-oxido-λ^4-sulfanylidenecyanamid], for which, in series [1], the “CA 0.78: % Control at ppm against cotton aphid (foliar spray)” value (shortened to “CA 0.78: % Control at ppm”) is “A (90-100)”, the “CA 3.13: % Control at ppm against cotton aphid (foliar spray)” value (shortened to “CA 3.13: % Control at ppm”) is reported as “A (90-100)”, the “CA 12.5: % Control at ppm against cotton aphid (foliar spray)” value (shortened to “CA 12.5: % Control at ppm”) is “A (90-100)” and the “CA 50: % Control at ppm against cotton aphid (foliar spray)” value (shortened to “CA 50: % Control at ppm”) is recorded as “A (90-100)”. In series [1], the pest or weed control at 50 ppm lay within 90 to 100% and the pest or weed control at 200 ppm lay within 90 to 100%. In series [2], the “GPA 200: % control at 200 ppm” value is on record as “A (90-100)” and the pest or weed control at 50 ppm fell in the range of 80 to 89%.
In the case of `CS(=O)(Cc1cnc(Cl)c(Br)c1)=NC#N` (centres unmarked) [Compound 7, [(5-bromo-6-chloropyridin-3-yl)methyl](methyl)-oxido-λ^4-sulfanylidenecyanamide], in series [1], the pest or weed control at 50 ppm lay within 90 to 100% and the pest or weed control at 200 ppm was 90 to 100%. Besides, in series [2], the “GPA 50: % control at 50 ppm” value is “G” and the “GPA 200: % control at 200 ppm” value was “G”.
Turning to `COc1cc(C(C)S(C)(=O)=NC#N)cnc1Cl` (centres unmarked) [Compound 6, [1-(5-methoxy-6-chloropyridin-3-yl)ethyl](methyl)-oxido-λ^4-sulfanylidenecyanamide], in series [1], the pest or weed control at 50 ppm was 60 to 69% and the pest or weed control at 200 ppm lay in the range of 90 to 100%. In series [2], the “GPA 50: % control at 50 ppm” value is given as “G” and the “GPA 200: % control at 200 ppm” value is “G”.
Take `CC(c1cnc(Cl)c(Br)c1)S(C)(=O)=NC#N` (centres unmarked) [Compound 8, [1-(5-bromo-6-chloropyridin-3-yl)ethyl](methyl)-oxido-λ^4-sulfanylidenecyanamide]: in series [1], the “CA 0.78: % Control at ppm” value is “E (50-59)”, the “CA 3.13: % Control at ppm” value is given as “A (90-100)”, the “CA 12.5: % Control at ppm” value is recorded as “A (90-100)” and the “CA 50: % Control at ppm” value was “A (90-100)”. Besides, in series [1], the pest or weed control at 50 ppm lay in the range of 90 to 100% and the pest or weed control at 200 ppm was 90 to 100%. Moreover, in series [2], the “GPA 50: % control at 50 ppm” value is on record as “G” and the “GPA 200: % control at 200 ppm” value was “B (80-89)”.
For `CS(=O)(Cc1cnc(Cl)c(F)c1)=NC#N` (centres unmarked) [Compound 2, [(5-fluroro-6-chloropyridin-3-yl)methyl](methyl)-oxido-λ^4-sulfanylidenecyanamide], in series [1], the “CA 0.78: % Control at ppm” value is recorded as “A (90-100)”, the “CA 3.13: % Control at ppm” value is “A (90-100)”, the “CA 12.5: % Control at ppm” value is given as “A (90-100)” and the “CA 50: % Control at ppm” value is “A (90-100)”. Also, in series [1], the pest or weed control at 50 ppm fell in the range of 90 to 100% and the pest or weed control at 200 ppm was 90 to 100%. In series [2], the “GPA 200: % control at 200 ppm” value was “B (80-89)” and the pest or weed control at 50 ppm lay in the range of 50 to 59%.
For the compound `CS(=O)(Cc1cnc(Cl)c(Cl)c1)=NC#N` (centres unmarked) [Compound 1, [(5,6-dichloropyridin-3-yl)methyl](methyl)-oxido λ^4-sulfanylidenecyanamide], in series [1], the pest or weed control at 50 ppm fell in the range of 90 to 100% and the pest or weed control at 200 ppm was in the range of 90 to 100%. The “GPA 50: % control at 50 ppm” value in series [2] is “G”.
Regarding `COc1cc(CS(C)(=O)=NC#N)cnc1Cl` (centres unmarked) [Compound 5, [(5-methoxy-6-chloropyridin-3-yl)methyl](methyl)-oxido-λ^4-sulfanylidenecyanamide], the melting point lay in the range of 123 to 125 °C. Besides, in series [1], the pest or weed control at 50 ppm lay within 70 to 79% and the pest or weed control at 200 ppm was 90 to 100%. In addition, in series [2], the “GPA 50: % control at 50 ppm” value was “G” and the “GPA 200: % control at 200 ppm” value is given as “G”.
On to `CS(=O)(Cc1cnc(Cl)cc1Cl)=NC#N` (centres unmarked) [Compound 9, [(4,6-dichloropyridin-3-yl)methyl](methyl)-oxido λ^4-sulfanylidenecyanamide], for which, in series [1], the pest or weed control at 50 ppm lay in the range of 90 to 100% and the pest or weed control at 200 ppm lay in the range of 90 to 100%. In series [2], the “GPA 50: % control at 50 ppm” value is given as “G”.

In general, melting point refers to the temperature, or range, at which the solid turns liquid.
